Test results published in doi:10.1101/2024.02.16.580637v1 (biorxiv, 2024).

Tests used:
Test in all cases: grating-coupled interferometry
Format in all cases: binding
Details in all cases: 20 mM Tris/HCl pH 7.5, 150 mM NaCl; mass transport limitation model
BtuG2 = molecular target: T1, BtuG2 (Bacteroides thetaiotaomicron, UniProt Q8A6D0)
T1 sequence (Q8A6D0 47-366): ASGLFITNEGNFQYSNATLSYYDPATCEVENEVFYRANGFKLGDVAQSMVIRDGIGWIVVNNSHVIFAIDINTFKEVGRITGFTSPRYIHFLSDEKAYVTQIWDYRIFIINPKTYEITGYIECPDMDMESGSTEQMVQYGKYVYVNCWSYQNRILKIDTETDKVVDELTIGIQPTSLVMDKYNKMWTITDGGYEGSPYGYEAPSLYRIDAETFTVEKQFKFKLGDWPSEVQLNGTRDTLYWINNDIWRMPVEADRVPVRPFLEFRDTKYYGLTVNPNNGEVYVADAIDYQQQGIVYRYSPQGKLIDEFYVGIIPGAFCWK

BtuG1 = molecular target: T2, BtuG1 (Bacteroides thetaiotaomicron, UniProt Q8A7N4)
T2 sequence (Q8A7N4 28-442): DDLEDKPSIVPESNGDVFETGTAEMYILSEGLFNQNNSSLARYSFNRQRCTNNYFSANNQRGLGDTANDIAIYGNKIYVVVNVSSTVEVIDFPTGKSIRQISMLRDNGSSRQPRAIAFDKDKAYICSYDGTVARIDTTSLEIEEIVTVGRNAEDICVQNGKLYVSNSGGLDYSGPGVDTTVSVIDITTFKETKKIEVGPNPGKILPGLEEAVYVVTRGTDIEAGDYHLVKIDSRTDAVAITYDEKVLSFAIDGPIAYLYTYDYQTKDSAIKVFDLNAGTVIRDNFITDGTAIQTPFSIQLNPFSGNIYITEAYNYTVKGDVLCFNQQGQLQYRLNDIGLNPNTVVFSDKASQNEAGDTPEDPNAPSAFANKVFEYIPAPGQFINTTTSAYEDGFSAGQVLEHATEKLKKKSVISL

BtuG3 [1] = molecular target: T3, BtuG3 (Bacteroides thetaiotaomicron, UniProt Q8A5Z1, A261W)
T3 sequence (Q8A5Z1 34-355 A261W): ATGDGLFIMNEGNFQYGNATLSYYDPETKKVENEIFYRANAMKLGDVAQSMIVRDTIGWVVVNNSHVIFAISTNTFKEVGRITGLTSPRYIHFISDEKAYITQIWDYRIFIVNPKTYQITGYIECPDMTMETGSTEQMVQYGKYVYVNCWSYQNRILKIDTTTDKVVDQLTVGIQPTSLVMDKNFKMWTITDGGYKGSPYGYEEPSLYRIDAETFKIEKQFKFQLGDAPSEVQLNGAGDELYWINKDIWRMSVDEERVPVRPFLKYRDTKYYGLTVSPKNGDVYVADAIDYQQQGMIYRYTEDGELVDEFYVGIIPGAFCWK

BtuG3 [2] = molecular target: T4, BtuG3 (Bacteroides thetaiotaomicron, UniProt Q8A5Z1)
T4 sequence (Q8A5Z1 34-355): T3 sequence (Q8A5Z1 34-355 A261W)

C/C1=C2/[N-][C@H]([C@H](CC(N)=O)[C@@]2(C)CCC(=O)NC[C@@H](C)OP(=O)([O-])O[C@H]2[C@@H](O)[C@@H](n3cnc4cc(C)c(C)cc43)O[C@@H]2CO)[C@]2(C)N=C(/C(C)=C3N=C(/C=C4N=C1[C@@H](CCC(N)=O)C\4(C)C)[C@@H](CCC(N)=O)[C@]\3(C)CC(N)=O)[C@@H](CCC(N)=O)[C@]2(C)CC(N)=O.[Co+3].[OH-] [OHCbl, hydroxycobalamin]
Kd (BtuG2): 2.2 · 10^-12 M | Kd (BtuG1): 3.0 · 10^-12 M | Kd (BtuG3 [1]): 1.4 · 10^-10 M | Kd (BtuG3 [2]): 2.8 · 10^-11 ± 3.9 · 10^-11 M
